Experimental data from ChEMBL document CHEMBL5338754, “Identification of Binding Sites in the Nucleotide-Binding Domain of P-Glycoprotein for a Potent and Nontoxic Modulator, the Amine-Containing Monomeric Flavonoid FM04” (J Med Chem, 2023).

Key:
[1] = target: T1, ATP-dependent translocase ABCB1 (Homo sapiens, UniProt P08183, Q1193A); test: Negative allosteric modulator activity at human P-gp Q1193A mutant expressed in HEK293FT cells assessed as reversal of P-gp mediated PTX resistance by measuring sensitivity fold change incubated for 5 days by MTS assay; format: cell-based; conditions: 120 h, time 5 day
T1 sequence (P08183 whole entry Q1193A): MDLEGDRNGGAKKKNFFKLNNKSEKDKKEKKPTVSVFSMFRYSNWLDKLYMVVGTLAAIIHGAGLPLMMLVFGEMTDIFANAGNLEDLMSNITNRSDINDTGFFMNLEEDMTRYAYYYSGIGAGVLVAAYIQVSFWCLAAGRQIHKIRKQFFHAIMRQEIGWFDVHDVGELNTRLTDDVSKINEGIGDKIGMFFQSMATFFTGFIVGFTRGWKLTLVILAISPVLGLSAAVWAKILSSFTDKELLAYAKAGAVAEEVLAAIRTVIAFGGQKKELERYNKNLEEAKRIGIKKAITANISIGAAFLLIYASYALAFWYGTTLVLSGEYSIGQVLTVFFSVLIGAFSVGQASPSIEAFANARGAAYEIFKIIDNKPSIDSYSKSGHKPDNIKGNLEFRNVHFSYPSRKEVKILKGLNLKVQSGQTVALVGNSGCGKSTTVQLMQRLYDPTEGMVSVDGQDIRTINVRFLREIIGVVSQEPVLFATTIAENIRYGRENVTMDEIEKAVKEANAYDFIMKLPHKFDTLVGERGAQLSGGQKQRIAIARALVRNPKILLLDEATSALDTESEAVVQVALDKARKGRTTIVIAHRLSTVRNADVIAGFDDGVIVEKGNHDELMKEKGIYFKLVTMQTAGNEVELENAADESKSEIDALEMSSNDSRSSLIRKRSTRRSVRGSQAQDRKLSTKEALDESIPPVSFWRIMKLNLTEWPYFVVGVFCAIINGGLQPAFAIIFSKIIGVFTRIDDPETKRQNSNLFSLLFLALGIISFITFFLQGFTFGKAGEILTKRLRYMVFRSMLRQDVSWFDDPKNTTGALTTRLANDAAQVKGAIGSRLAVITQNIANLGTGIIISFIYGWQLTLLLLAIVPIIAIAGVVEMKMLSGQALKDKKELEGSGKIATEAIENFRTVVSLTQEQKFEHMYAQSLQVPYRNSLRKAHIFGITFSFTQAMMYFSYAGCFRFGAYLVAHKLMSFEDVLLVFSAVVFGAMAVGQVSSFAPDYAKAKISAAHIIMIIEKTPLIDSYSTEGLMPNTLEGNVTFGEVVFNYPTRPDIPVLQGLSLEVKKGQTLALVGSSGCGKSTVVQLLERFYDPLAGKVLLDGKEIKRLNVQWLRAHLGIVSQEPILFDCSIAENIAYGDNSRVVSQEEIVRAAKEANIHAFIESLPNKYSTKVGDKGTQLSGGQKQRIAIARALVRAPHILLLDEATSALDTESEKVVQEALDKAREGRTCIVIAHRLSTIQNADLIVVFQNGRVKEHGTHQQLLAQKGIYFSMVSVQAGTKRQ

[2] = target: ATP-dependent translocase ABCB1 (Homo sapiens, UniProt P08183, C1227A); test: Negative allosteric modulator activity at human P-gp C1227A mutant expressed in HEK293FT cells assessed as reversal of P-gp mediated PTX resistance by measuring sensitivity fold change incubated for 5 days by MTS assay; format: cell-based; conditions: 120 h, time 5 day
[3] = target: ATP-dependent translocase ABCB1 (Homo sapiens, UniProt P08183, Q1193E); test: Negative allosteric modulator activity at human P-gp Q1193E mutant expressed in HEK293FT cells assessed as reversal of P-gp mediated PTX resistance by measuring sensitivity fold change incubated for 5 days by MTS assay; format: cell-based; conditions: 120 h, time 5 day
[4] = target: ATP-dependent translocase ABCB1 (Homo sapiens, UniProt P08183, Q1193C); test: Negative allosteric modulator activity at human P-gp Q1193C mutant expressed in HEK293FT cells assessed as reversal of P-gp mediated PTX resistance by measuring sensitivity fold change incubated for 5 days by MTS assay; format: cell-based; conditions: 120 h, time 5 day
ATP-dependent translocase ABCB1 (Homo sapiens, UniProt P08183, Q1193C), sequence (P08183 whole entry Q1193C): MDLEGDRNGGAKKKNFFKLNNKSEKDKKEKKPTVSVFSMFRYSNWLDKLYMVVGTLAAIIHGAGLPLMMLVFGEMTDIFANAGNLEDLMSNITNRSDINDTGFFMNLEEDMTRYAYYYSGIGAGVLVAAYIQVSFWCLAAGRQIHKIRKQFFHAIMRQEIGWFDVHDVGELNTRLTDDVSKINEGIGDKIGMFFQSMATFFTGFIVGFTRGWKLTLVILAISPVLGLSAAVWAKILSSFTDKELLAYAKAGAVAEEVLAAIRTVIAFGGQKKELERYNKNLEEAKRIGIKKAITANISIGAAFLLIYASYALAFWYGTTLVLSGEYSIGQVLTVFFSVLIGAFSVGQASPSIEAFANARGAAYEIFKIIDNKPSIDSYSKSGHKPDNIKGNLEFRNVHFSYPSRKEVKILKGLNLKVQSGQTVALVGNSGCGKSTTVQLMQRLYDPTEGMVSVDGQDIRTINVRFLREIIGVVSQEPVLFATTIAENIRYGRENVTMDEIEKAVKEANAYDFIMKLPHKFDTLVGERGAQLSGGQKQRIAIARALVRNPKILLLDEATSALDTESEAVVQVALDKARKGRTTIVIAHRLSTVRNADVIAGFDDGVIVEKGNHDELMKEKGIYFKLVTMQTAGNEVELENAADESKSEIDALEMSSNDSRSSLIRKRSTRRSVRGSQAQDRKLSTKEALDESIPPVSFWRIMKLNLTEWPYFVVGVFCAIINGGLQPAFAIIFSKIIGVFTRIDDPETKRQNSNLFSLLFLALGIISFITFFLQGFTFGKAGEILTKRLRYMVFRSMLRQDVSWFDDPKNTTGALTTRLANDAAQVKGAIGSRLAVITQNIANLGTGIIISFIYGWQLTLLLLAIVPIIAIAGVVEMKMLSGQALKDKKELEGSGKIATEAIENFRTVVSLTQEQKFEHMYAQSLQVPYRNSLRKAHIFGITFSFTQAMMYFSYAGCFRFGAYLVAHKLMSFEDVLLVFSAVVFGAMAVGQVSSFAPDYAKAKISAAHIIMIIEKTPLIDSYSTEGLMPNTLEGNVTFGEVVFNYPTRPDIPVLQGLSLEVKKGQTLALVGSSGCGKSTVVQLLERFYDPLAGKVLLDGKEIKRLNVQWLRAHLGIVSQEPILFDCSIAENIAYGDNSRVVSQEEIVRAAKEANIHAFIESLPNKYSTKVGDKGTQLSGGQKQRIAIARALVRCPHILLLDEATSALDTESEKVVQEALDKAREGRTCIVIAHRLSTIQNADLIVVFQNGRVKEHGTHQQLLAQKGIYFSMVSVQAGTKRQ

[5] = target: T2, ATP-dependent translocase ABCB1 (Homo sapiens, UniProt P08183, I1115F); test: Negative allosteric modulator activity at human P-gp I1115F mutant expressed in HEK293FT cells assessed as reversal of P-gp mediated PTX resistance by measuring sensitivity fold change incubated for 5 days by MTS assay; format: cell-based; conditions: 120 h, time 5 day
T2 sequence (P08183 whole entry I1115F): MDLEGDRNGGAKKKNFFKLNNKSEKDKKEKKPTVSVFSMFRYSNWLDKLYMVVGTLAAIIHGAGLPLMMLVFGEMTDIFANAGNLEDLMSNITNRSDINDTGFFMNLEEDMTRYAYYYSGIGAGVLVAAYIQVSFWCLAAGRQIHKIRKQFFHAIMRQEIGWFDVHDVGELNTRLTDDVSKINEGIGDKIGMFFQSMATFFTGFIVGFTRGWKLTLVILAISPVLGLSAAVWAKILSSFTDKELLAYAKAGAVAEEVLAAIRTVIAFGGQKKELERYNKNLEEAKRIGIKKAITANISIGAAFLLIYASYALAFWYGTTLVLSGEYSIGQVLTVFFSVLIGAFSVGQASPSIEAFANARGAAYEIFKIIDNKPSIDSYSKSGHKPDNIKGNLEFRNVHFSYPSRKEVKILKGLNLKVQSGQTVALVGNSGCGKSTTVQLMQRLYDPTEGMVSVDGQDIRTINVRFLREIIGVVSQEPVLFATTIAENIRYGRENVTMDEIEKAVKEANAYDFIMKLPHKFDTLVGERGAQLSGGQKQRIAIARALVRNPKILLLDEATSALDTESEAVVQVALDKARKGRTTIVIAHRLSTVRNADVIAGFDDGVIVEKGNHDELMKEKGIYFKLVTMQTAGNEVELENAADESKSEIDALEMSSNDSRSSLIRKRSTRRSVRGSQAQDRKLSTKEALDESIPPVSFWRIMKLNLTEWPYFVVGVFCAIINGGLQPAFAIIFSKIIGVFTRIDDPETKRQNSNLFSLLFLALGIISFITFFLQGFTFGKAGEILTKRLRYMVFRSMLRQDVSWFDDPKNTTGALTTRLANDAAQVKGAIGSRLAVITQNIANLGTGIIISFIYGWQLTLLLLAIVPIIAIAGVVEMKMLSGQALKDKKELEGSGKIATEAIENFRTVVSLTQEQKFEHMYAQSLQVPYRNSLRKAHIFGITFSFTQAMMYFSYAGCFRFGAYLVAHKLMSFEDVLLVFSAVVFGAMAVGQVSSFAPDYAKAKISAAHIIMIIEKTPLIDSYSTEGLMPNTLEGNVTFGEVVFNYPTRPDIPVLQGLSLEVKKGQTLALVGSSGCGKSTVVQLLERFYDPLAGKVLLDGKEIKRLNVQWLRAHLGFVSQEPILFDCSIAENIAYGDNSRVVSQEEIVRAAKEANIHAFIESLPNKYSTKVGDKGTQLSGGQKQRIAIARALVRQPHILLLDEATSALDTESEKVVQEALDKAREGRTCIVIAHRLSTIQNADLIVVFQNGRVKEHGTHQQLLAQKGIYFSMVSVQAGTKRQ

[6] = target: T3, ATP-dependent translocase ABCB1 (Homo sapiens, UniProt P08183, T1226F); test: Negative allosteric modulator activity at human P-gp T1226F mutant expressed in HEK293FT cells assessed as reversal of P-gp mediated PTX resistance by measuring sensitivity fold change incubated for 5 days by MTS assay; format: cell-based; conditions: 120 h, time 5 day
T3 sequence (P08183 whole entry T1226F): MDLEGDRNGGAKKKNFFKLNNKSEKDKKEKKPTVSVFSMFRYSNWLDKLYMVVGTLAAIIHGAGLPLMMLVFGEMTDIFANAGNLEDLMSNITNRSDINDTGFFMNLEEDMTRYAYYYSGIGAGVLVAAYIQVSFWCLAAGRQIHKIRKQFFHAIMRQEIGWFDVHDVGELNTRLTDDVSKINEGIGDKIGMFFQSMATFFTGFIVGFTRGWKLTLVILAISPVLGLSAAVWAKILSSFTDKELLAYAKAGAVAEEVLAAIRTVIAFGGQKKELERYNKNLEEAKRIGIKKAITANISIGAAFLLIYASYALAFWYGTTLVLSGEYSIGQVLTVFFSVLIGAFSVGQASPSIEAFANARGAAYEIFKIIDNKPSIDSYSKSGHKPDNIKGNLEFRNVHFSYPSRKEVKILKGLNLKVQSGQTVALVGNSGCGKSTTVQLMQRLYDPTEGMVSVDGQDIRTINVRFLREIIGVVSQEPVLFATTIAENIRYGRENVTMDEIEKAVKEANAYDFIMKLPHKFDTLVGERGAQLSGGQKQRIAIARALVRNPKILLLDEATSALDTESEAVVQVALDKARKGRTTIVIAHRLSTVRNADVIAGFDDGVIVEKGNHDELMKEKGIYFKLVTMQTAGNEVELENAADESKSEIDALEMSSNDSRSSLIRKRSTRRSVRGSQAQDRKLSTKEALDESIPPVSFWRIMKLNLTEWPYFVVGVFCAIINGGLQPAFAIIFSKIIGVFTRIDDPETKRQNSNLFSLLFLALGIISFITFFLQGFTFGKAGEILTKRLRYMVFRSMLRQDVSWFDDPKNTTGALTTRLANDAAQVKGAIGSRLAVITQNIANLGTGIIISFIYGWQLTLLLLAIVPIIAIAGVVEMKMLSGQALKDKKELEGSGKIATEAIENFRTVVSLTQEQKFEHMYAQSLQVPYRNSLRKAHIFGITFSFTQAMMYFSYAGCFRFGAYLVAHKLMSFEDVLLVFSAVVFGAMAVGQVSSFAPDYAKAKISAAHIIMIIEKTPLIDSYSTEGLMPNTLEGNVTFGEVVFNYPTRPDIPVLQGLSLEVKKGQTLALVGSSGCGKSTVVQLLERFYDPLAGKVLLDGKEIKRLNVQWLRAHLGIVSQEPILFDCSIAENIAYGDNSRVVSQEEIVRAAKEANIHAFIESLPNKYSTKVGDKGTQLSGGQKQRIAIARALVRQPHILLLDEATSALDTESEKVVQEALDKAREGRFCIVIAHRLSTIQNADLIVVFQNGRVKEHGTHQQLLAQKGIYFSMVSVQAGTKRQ

[7] = target: T1, ATP-dependent translocase ABCB1; test: Negative allosteric modulator activity at human P-gp Q1193A mutant expressed in HEK293FT cells assessed as increase in intracellular doxorubicin accumulation using doxorubicin as substrate at 1 uM incubated for 150 mins by microplate reader assay (reference value: 53.6 +/- 3 %); format: cell-based; conditions: 2.5 h
[8] = target: ATP-dependent translocase ABCB1 (Homo sapiens, UniProt P08183, L1113A); test: Negative allosteric modulator activity at human P-gp L1113A mutant expressed in HEK293FT cells assessed as increase in intracellular doxorubicin accumulation using doxorubicin as substrate at 1 uM incubated for 150 mins by microplate reader assay (reference value: 45.6 +/- 1.5 %); format: cell-based; conditions: 2.5 h
[9] = target: T3, ATP-dependent translocase ABCB1; test: Negative allosteric modulator activity at human P-gp T1226F mutant expressed in HEK293FT cells assessed as increase in intracellular doxorubicin accumulation using doxorubicin as substrate at 1 uM incubated for 150 mins by microplate reader assay (reference value: 67.6 +/- 1.9 %); format: cell-based; conditions: 2.5 h
[10] = target: ATP-dependent translocase ABCB1 (Homo sapiens, UniProt P08183, G1114A); test: Negative allosteric modulator activity at human P-gp G1114A mutant expressed in HEK293FT cells assessed as fold change in intracellular doxorubicin accumulation using doxorubicin as substrate at 1 uM incubated for 150 mins by microplate reader assay relative to DMSO; format: cell-based; conditions: 2.5 h
[11] = target: ATP-dependent translocase ABCB1 (Homo sapiens, UniProt P08183, H1195A); test: Negative allosteric modulator activity at human P-gp H1195A mutant expressed in HEK293FT cells assessed as fold change in intracellular doxorubicin accumulation using doxorubicin as substrate at 1 uM incubated for 150 mins by microplate reader assay relative to DMSO; format: cell-based; conditions: 2.5 h
[12] = target: ATP-dependent translocase ABCB1 (Homo sapiens, UniProt P08183, I1115W); test: Negative allosteric modulator activity at human P-gp I1115W mutant expressed in HEK293FT cells assessed as fold change in intracellular doxorubicin accumulation using doxorubicin as substrate at 1 uM incubated for 150 mins by microplate reader assay relative to DMSO; format: cell-based; conditions: 2.5 h
[13] = target: ATP-dependent translocase ABCB1 (Homo sapiens, UniProt P08183, I1115E); test: Negative allosteric modulator activity at human P-gp I1115E mutant expressed in HEK293FT cells assessed as fold change in intracellular doxorubicin accumulation using doxorubicin as substrate at 1 uM incubated for 150 mins by microplate reader assay relative to DMSO; format: cell-based; conditions: 2.5 h
[14] = target: T2, ATP-dependent translocase ABCB1; test: Negative allosteric modulator activity at human P-gp I1115F mutant expressed in HEK293FT cells assessed as fold change in intracellular doxorubicin accumulation using doxorubicin as substrate at 1 uM incubated for 150 mins by microplate reader assay relative to DMSO; format: cell-based; conditions: 2.5 h
[15] = target: ATP-dependent translocase ABCB1 (Homo sapiens, UniProt P08183, I1115L); test: Negative allosteric modulator activity at human P-gp I1115L mutant expressed in HEK293FT cells assessed as fold change in intracellular doxorubicin accumulation using doxorubicin as substrate at 1 uM incubated for 150 mins by microplate reader assay relative to DMSO; format: cell-based; conditions: 2.5 h
[16] = target: ATP-dependent translocase ABCB1 (Homo sapiens, UniProt P08183, T1226W); test: Negative allosteric modulator activity at human P-gp T1226W mutant expressed in HEK293FT cells assessed as fold change in intracellular doxorubicin accumulation using doxorubicin as substrate at 1 uM incubated for 150 mins by microplate reader assay relative to DMSO; format: cell-based; conditions: 2.5 h
[17] = target: ATP-dependent translocase ABCB1 (Homo sapiens, UniProt P08183, Q1193F); test: Activation of P-gp ATPase activity in human P-gp Q1193F mutant expressed in HEK293FT cell microsomes at 20 uM incubated for 1 hr in presence of ATP by Glo-luminescence based microplate reader assay (reference value: 0.41 +/- 0.06 pmol/min/microg); design: species or system Microsome
[18] = target: P-gp (ABCB1) Q1193A mutant (Homo sapiens, UniProt P08183, Q1193A); test: Activation of P-gp ATPase activity in human P-gp Q1193A mutant expressed in HEK293FT cell microsomes assessed as fold change of ATPase activity at 20 uM incubated for 1 hr in presence of ATP by Glo-luminescence based microplate reader assay relative to DMSO; design: species or system Microsome; conditions: read-out: FC
[19] = target: P-gp (ABCB1) Q1193N mutant (Homo sapiens, UniProt P08183, Q1193N); test: Activation of P-gp ATPase activity in human P-gp Q1193N mutant expressed in HEK293FT cell microsomes assessed as fold change of ATPase activity at 20 uM incubated for 1 hr in presence of ATP by Glo-luminescence based microplate reader assay relative to DMSO; design: species or system Microsome; conditions: read-out: FC
P-gp (ABCB1) wildtype = P-gp (ABCB1) wildtype (Homo sapiens, UniProt P08183); test: Activation of P-gp ATPase activity in wildtype human P-gp expressed in HEK293FT cell microsomes assessed as fold change of ATPase activity at 20 uM incubated for 1 hr in presence of ATP by Glo-luminescence based microplate reader assay relative to DMSO; design: species or system Microsome; conditions: microsomes of HEK293FT cells expressing wildtype human P-gp, read-out: FC

Compound: O=c1cc(-c2ccc(OCCOCCNCc3ccccc3)cc2)oc2ccccc12
- fold change (FC) [1]: 4.3
- fold change (FC) [2]: 67.7
- fold change (FC) [3]: 4.3
- fold change (FC) [4]: 12.4
- fold change (FC) [5]: 15.6
- fold change (FC) [6]: 59.4
- Activity [7]: 59.8%
- Activity [8]: 82.2%
- Activity [9]: 100.3%
- fold change (FC) [10]: 1
- fold change (FC) [11]: 1.1
- fold change (FC) [12]: 1
- fold change (FC) [13]: 1
- fold change (FC) [14]: 1.3
- fold change (FC) [15]: 1.7
- fold change (FC) [16]: 1.5
- Activity [17]: 0.45 pmol/min/µg
- fold induction at 1 h, 20 µM [18]: 1.1
- fold induction at 1 h, 20 µM [19]: 1.7
- fold induction at 1 h, 20 µM (P-gp (ABCB1) wildtype): 1.6
